What all share (type): biochemical
In one test the target is PDE1A (Homo sapiens, UniProt P54750). The test is described as follows: PDE1 inhibition assay (PDE1A), SPA with tritium labelled cAMP. The settings on record: 15 nM tritium labelled cAMP, 1 hr at room temperature, SPA beads.
The next test addresses PDE1B (Homo sapiens, UniProt Q01064). Briefly: PDE1 inhibition assay (PDE1B), SPA with tritium labelled cAMP. The settings on record: 15 nM tritium labelled cAMP, 1 hr at room temperature, SPA beads; read-out: PDE1B, IC50. The procedure:
Reactions were initiated by addition of the cyclic nucleotide substrate, and reactions were allowed to proceed for 1 hr at room temperature before being terminated through mixing with 20 μL (0.2 mg) yttrium silicate SPA beads (PerkinElmer).

The target of a further test is PDE1C (Homo sapiens, UniProt Q14123). Briefly: PDE1 inhibition assay (PDE1C), SPA with tritium labelled cAMP. The settings on record: 15 nM tritium labelled cAMP, 1 hr at room temperature, SPA beads.

Molecules are shown by their SMILES. pIC50: −log10 of the molar value.

Chain of PDE1C (Q14123 whole entry): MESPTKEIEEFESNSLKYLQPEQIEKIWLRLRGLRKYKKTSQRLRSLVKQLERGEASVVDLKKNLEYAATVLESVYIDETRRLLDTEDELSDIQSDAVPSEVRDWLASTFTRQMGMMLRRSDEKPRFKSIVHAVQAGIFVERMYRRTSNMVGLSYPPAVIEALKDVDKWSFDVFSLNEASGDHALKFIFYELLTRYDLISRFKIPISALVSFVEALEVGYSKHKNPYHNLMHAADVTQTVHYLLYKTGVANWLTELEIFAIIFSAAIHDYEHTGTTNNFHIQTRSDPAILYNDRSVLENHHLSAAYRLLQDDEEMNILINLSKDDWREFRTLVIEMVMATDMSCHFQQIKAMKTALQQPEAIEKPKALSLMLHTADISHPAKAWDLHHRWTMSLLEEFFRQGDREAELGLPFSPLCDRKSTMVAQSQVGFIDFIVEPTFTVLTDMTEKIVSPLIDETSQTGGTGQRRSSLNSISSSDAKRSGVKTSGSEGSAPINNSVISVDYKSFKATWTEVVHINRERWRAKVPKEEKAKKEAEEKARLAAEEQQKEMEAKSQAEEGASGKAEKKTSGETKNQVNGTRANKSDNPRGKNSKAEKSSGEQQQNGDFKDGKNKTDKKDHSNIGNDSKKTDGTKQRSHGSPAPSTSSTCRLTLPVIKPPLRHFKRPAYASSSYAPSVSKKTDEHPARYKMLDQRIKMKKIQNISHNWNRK
Chain of PDE1B (Q01064 whole entry): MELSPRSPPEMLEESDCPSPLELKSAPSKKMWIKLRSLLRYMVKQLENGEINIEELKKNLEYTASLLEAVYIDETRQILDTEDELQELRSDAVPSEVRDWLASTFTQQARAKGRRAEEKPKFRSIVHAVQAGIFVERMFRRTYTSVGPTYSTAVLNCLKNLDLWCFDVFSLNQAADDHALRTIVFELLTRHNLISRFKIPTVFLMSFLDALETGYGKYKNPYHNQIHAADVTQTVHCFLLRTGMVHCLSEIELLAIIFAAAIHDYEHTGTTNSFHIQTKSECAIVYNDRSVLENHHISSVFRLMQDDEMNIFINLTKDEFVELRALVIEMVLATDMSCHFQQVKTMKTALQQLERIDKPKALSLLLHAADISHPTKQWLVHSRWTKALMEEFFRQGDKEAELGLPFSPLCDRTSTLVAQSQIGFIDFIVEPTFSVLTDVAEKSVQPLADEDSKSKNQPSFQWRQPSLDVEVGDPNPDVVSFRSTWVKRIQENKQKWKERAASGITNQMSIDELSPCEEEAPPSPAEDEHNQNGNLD
Chain of PDE1A (P54750 whole entry): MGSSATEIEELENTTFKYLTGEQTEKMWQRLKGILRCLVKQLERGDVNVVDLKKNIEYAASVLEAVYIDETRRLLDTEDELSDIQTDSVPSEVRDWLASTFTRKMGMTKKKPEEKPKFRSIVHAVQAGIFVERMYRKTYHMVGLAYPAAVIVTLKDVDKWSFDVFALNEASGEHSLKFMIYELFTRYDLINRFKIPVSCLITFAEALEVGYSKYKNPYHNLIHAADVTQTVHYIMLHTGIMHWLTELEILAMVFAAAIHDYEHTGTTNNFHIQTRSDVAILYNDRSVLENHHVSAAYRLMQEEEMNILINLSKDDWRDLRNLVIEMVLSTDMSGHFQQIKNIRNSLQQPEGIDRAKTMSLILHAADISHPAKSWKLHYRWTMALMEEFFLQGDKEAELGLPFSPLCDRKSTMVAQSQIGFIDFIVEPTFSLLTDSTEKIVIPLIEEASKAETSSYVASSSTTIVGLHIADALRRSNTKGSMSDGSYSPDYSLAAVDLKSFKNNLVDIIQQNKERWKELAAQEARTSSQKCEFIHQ

Regarding `CCOc1ncccc1-c1cc(NCc2nc(C)no2)c2c(C(C)C)nn(C)c2n1` [Example 32, 6-(2-ethoxy-3-pyridyl)-3-isopropyl-1-methyl-N-[(3-methyl-1,2,4-oxadiazol-5-yl)methyl]pyrazolo[3,4-b]pyridin-4-amine], the pIC50 on PDE1A is 7.09; on PDE1B, 8.11; on PDE1C, 7.20.
For `CCOc1ncccc1-c1cc(NCc2cnn(C)n2)c2c(C(C)C)nc(C)n2n1` [Example 44, 2-(2-ethoxy-3-pyridyl)-5-isopropyl-7-methyl-N-[(2-methyltriazol-4-yl)methyl]imidazo[1,5-b]pyridazin-4-amine] the same measures were 7.42, 8.29 and 7.62.
Regarding `CCOc1ncccc1-c1cc(NCc2ncc(F)cn2)c2c(C(C)C)nc(C)n2n1` [Example 76, 2-(2-ethoxy-3-pyridyl)-N-[(5-fluoropyrimidin-2-yl)methyl]-5-isopropyl-7-methyl-imidazo[1,5-b]pyridazin-4-amine], the pIC50 was 7.05 against PDE1A, 7.77 at PDE1B and 6.96 at PDE1C.
In the case of `CCOc1ncccc1-c1cc(NCc2cccnc2C(F)(F)F)c2c(C(C)C)nn(C)c2n1` [Example 38, 6-(2-ethoxy-3-pyridyl)-3-isopropyl-1-methyl-N-[[2-(trifluoromethyl)-3-pyridyl]methyl]pyrazolo[3,4-b]pyridin-4-amine], the pIC50 at PDE1A is 6.74; at PDE1B, 7.48; against PDE1C, 6.74.

For the origin of these results see patent US10351561B2, “Pyrazolo[3,4-b]pyridines and imidazo[1,5-b]pyridazines as PDE1 inhibitors” (H. Lundbeck A/S, priority 2016, dated 2019).
